Among the data in ChEMBL document CHEMBL1159171, “Symmetry-based HIV protease inhibitors containing a hydroxy bis-urea isostere” (Bioorg Med Chem Lett, 1994) are inhibition values, retold here.

In this experiment the target is Human immunodeficiency virus type 1 protease (Human immunodeficiency virus 1) (UniProt Q72874). In words: In vitro inhibitory activity against HIV-1 protease at a concentration of 10 uM.
As to `CC(C)(C)OC(=O)NC(=O)N(Cc1ccccc1)CC(O)CN(Cc1ccccc1)C(=O)NC(=O)OC(C)(C)C`, the inhibition (in general, the relative decrease from the control value, in per cent) is 28%. Take `CON[C@H](C(=O)NC(=O)N(Cc1ccccc1)CC(O)CN(Cc1ccccc1)C(=O)NC(=O)[C@@H](NOC)C(C)C)C(C)C`: the inhibition was 36%. With `CC(C)(C)NC(=O)N(Cc1cccc(O)c1)CC(O)CN(Cc1cccc(O)c1)C(=O)NC(C)(C)C`, the inhibition was 67%.

With `O=C(NCc1ccccc1)N(Cc1ccccc1)CC(O)CN(Cc1ccccc1)C(=O)NCc1ccccc1`, the inhibition turned out to be 19%. On to `CC(C)(C)NC(=O)N(Cc1ccccc1O)CC(O)CN(Cc1ccccc1O)C(=O)NC(C)(C)C`, for which the inhibition is 11%.

The compound `O=C(Nc1ccccc1)N(Cc1ccccc1)CC(O)CN(Cc1ccccc1)C(=O)Nc1ccccc1` yielded an inhibition of 16%.

For `CON[C@@H](C(=O)NC(=O)N(Cc1ccccc1)CC(O)CN(Cc1ccccc1)C(=O)NC(=O)[C@H](NOC)C(C)C)C(C)C` (single isomer, unassigned), the inhibition worked out at 16%. On to `CC(C)CN(CC(O)CN(CC(C)C)C(=O)NC(C)(C)C)C(=O)NC(C)(C)C`, for which the inhibition is 25%. The value for `CC(C)(C)NC(=O)N(Cc1cccc(O)c1O)CC(O)CN(Cc1cccc(O)c1O)C(=O)NC(C)(C)C` was 67%; that for `CC(C)(C)N(Cc1ccccc1)C(=O)NCC(O)CNC(=O)N(Cc1ccccc1)C(C)(C)C` was 17.5%. Consider `CC(C)(C)NC(=O)NCC(O)CNC(=O)NC(C)(C)C`, for which the inhibition turned out to be 8%. As for `CC(C)(C)NC(=O)N(Cc1ccccc1)CC(O)CN(Cc1ccccc1)C(=O)NC(C)(C)C`, the inhibition was 50%. In the case of `CC(C)[C@H](NC(=O)OCc1ccccc1)C(=O)N[C@@H](Cc1ccccc1)C(O)[C@H](Cc1ccccc1)NC(=O)[C@@H](NC(=O)OCc1ccccc1)C(C)C`, the inhibition worked out at 3%. For `CCCNC(=O)N(Cc1ccccc1)CC(O)CN(Cc1ccccc1)C(=O)NCCC`, the inhibition turned out to be 38%. The compound `CC(C)(C)NC(=O)N(Cc1ccccc1)C[C@H](O)[C@@H](O)CN(Cc1ccccc1)C(=O)NC(C)(C)C` returned an inhibition of 78%.
